{
  "source": "patent US8975078B2",
  "about": "“Method for expressing a mouse olfactory receptor Olfr15 on a cell membrane” (Panasonic Corporation, priority 2011, dated 2015)",
  "key": {"HEK293T cells": {"test_system": "HEK293T cells", "experiment": "Cell viability rate of transfected HEK293T cells at the time of immunofluorescence", "format": "cell-based", "experimental": "The liquid culture medium containing HEK293T cells was added into a Petri dish. The HEK293T cells adhered spontaneously to the inner wall of the Petri dish.\nThe plasmid (RTP1S), the plasmid (Rho-myc-Olfr15), and a plasmid (purchased from Evrogen, trade name: pMkate2) coding for a membrane marker were added to the Petri dish, and the HEK293T cells were transfected with these three plasmids by a lipofection method. The liquid culture medium was maintained under an air atmosphere containing 5% CO2 under a temperature of 37 degrees Celsius. In this way, as shown in the uppermost part of FIG. 4, the vessel containing the transformed HEK293 cells and the liquid culture medium was prepared.\nTwenty four hours after the transfection, a liquid culture medium containing chlorpromazine was added into the vessel. […]\nSubsequently, the liquid culture medium was removed. Then, the liquid culture medium not containing chlorpromazine (see FIG. 2) was added to the vessel. Thus, the liquid culture medium was exchanged.\nFour hours after the exchange of the liquid culture medium, the distribution of the mouse olfactory receptor Olfr15 on the cell membrane was evaluated in accordance with the immunofluorescence technique disclosed in Non Patent Literature 2. For example, the expression rate on the cell membrane and the cell viability rate were calculated in accordance with the following formulas. (Expression rate on the cell membrane)=(fluorescence intensity on the cell membrane)/(fluorescence intensity of one entire cell) (Cell viability rate)=(the number of the living cells when the immunofluorescence technique was performed)/(the number of all the cells when the immunofluorescence technique was performed)\nFor example, the expression rate and the cell viability rate of not less than ten cells were calculated. Then, each of the average value of these rates was calculated. “Expression rate on the cell membrane” and “Cell viability rate” described in Table 3 are the average rates thereof."}, "[1]": {"test_system": "mouse olfactory receptor Olfr15", "experiment": "Expression rate of mouse olfactory receptor Olfr15 on the cell membrane of transfected HEK293T cells (immunofluorescence)", "format": "cell-based"}, "[2]": {"details": "chlorpromazine 5 μg/ml, immersion time 0.5 hour"}, "[3]": {"details": "chlorpromazine 5 μg/ml, immersion time 1 hour"}, "[4]": {"details": "chlorpromazine 5 μg/ml, immersion time 2 hour"}, "[5]": {"details": "chlorpromazine 5 μg/ml, immersion time 4 hour"}, "[6]": {"details": "chlorpromazine 5 μg/ml, immersion time 9 hour"}, "[7]": {"details": "chlorpromazine 5 μg/ml, immersion time 20 hour"}, "[8]": {"details": "chlorpromazine 10 μg/ml, immersion time 0.5 hour"}, "[9]": {"details": "chlorpromazine 10 μg/ml, immersion time 1 hour"}, "[10]": {"details": "chlorpromazine 10 μg/ml, immersion time 2 hour"}, "[11]": {"details": "chlorpromazine 10 μg/ml, immersion time 4 hour"}, "[12]": {"details": "chlorpromazine 10 μg/ml, immersion time 9 hour"}, "[13]": {"details": "chlorpromazine 10 μg/ml, immersion time 20 hour"}, "[14]": {"details": "chlorpromazine 25 μg/ml, immersion time 0.5 hour"}, "[15]": {"details": "chlorpromazine 25 μg/ml, immersion time 1 hour"}, "[16]": {"details": "chlorpromazine 25 μg/ml, immersion time 2 hour"}},
  "data": [
    {"smiles": "CN(C)CCCN1c2ccccc2Sc2ccc(Cl)cc21", "note": "[chlorpromazine]", "values": [
      {"measurement": "Cell viability rate (%)", "setting": "HEK293T cells; [2]", "value": 81, "unit": "%"},
      {"measurement": "Cell viability rate (%)", "setting": "HEK293T cells; [3]", "value": 88, "unit": "%"},
      {"measurement": "Cell viability rate (%)", "setting": "HEK293T cells; [4]", "value": 89, "unit": "%"},
      {"measurement": "Cell viability rate (%)", "setting": "HEK293T cells; [5]", "value": 82, "unit": "%"},
      {"measurement": "Cell viability rate (%)", "setting": "HEK293T cells; [6]", "value": 79, "unit": "%"},
      {"measurement": "Cell viability rate (%)", "setting": "HEK293T cells; [7]", "value": 68, "unit": "%"},
      {"measurement": "Cell viability rate (%)", "setting": "HEK293T cells; [8]", "value": 89, "unit": "%"},
      {"measurement": "Cell viability rate (%)", "setting": "HEK293T cells; [9]", "value": 82, "unit": "%"},
      {"measurement": "Cell viability rate (%)", "setting": "HEK293T cells; [10]", "value": 84, "unit": "%"},
      {"measurement": "Cell viability rate (%)", "setting": "HEK293T cells; [11]", "value": 81, "unit": "%"},
      {"measurement": "Cell viability rate (%)", "setting": "HEK293T cells; [12]", "value": 41, "unit": "%"},
      {"measurement": "Cell viability rate (%)", "setting": "HEK293T cells; [13]", "value": 50, "unit": "%"},
      {"measurement": "Cell viability rate (%)", "setting": "HEK293T cells; [14]", "value": 89, "unit": "%"},
      {"measurement": "Cell viability rate (%)", "setting": "HEK293T cells; [15]", "value": 55, "unit": "%"},
      {"measurement": "Cell viability rate (%)", "setting": "HEK293T cells; [16]", "value": 41, "unit": "%"},
      {"measurement": "Cell viability rate (%)", "setting": "HEK293T cells; chlorpromazine 25 μg/ml, immersion time 20 hour", "value": 11, "unit": "%"},
      {"measurement": "Expression rate on the cell membrane (%)", "setting": "[1]; Comparative Example 2: as Example 1 (chlorpromazine 25 μg/ml, 20 hour) but plasmid (RTP1S) not used", "value": 9.7, "unit": "%"},
      {"measurement": "Expression rate on the cell membrane (%)", "setting": "[1]; [2]", "value": 11.8, "unit": "%"},
      {"measurement": "Expression rate on the cell membrane (%)", "setting": "[1]; [3]", "value": 8.1, "unit": "%"},
      {"measurement": "Expression rate on the cell membrane (%)", "setting": "[1]; [4]", "value": 12.3, "unit": "%"},
      {"measurement": "Expression rate on the cell membrane (%)", "setting": "[1]; [5]", "value": 8.5, "unit": "%"},
      {"measurement": "Expression rate on the cell membrane (%)", "setting": "[1]; [6]", "value": 11.5, "unit": "%"},
      {"measurement": "Expression rate on the cell membrane (%)", "setting": "[1]; [7]", "value": 14.1, "unit": "%"},
      {"measurement": "Expression rate on the cell membrane (%)", "setting": "[1]; [8]", "value": 9.6, "unit": "%"},
      {"measurement": "Expression rate on the cell membrane (%)", "setting": "[1]; [9]", "value": 9.9, "unit": "%"},
      {"measurement": "Expression rate on the cell membrane (%)", "setting": "[1]; [10]", "value": 19.7, "unit": "%"},
      {"measurement": "Expression rate on the cell membrane (%)", "setting": "[1]; [11]", "value": 16.7, "unit": "%"},
      {"measurement": "Expression rate on the cell membrane (%)", "setting": "[1]; [12]", "value": 17.4, "unit": "%"},
      {"measurement": "Expression rate on the cell membrane (%)", "setting": "[1]; [13]", "value": 19.2, "unit": "%"},
      {"measurement": "Expression rate on the cell membrane (%)", "setting": "[1]; [14]", "value": 15.1, "unit": "%"},
      {"measurement": "Expression rate on the cell membrane (%)", "setting": "[1]; [15]", "value": 29.5, "unit": "%"},
      {"measurement": "Expression rate on the cell membrane (%)", "setting": "[1]; [16]", "value": 24.0, "unit": "%"},
      {"measurement": "Expression rate on the cell membrane (%)", "setting": "[1]; chlorpromazine 25 μg/ml, immersion time 20 hour, HEK293T with RTP1S and Rho-myc-Olfr15 plasmids, 4 h after medium exchange", "value": 28.4, "unit": "%"},
      {"measurement": "expression rate of the olfactory receptor Olfr15 on the cell membrane (change when added)", "setting": "[1]; statement on Table 3, versus medium without chlorpromazine", "value": "increases"}
    ]},
    {"smiles": "OC[C@H]1O[C@@](CO)(O[C@H]2O[C@H](CO)[C@@H](O)[C@H](O)[C@H]2O)[C@@H](O)[C@@H]1O", "note": "[sucrose]", "values": [
      {"measurement": "Expression rate on the cell membrane (%)", "setting": "[1]; Comparative Example 4: sucrose 250 mM instead of chlorpromazine, otherwise as Example 1", "value": 12.5, "unit": "%"}
    ]}
  ]
}
